Assay results reported in patent US9616022B1, “Nanodiamond compositions and their use for drug delivery” (THE FLORIDA INTERNATIONAL UNIVERSITY BOARD OF TRUSTEES, priority 2016, dated 2017).

Experiments:
[1] = Solubility in water or PBS; format: physicochemical
Description: In some embodiments, the efficacy of the ND-EFV formulation can be further optimized by making a suspension of the formulation in a liquid. Being hydrophobic molecules, both EFV and ND were insoluble in water or phosphate buffer saline (PBS). In certain embodiments, solvents with ratios of PBS to DMSO (dimethyl sulfoxide) ranging from 1:1 to 1:9 were used to make the ND-EFV formulation soluble in physiological buffer media. In an exemplary embodiment, a PBS:DMSO ratio of approximately 1:9 was used for making a ND-EFV suspension, which was subsequently diluted in preparation to perform biological experiments.

[2] = tested on: in-vitro BBB model (HBMVEC and astrocytes); assay: Drug delivery through in-vitro BBB model; format: in vitro ADME, human; conditions: 40 μg/mL in upper chamber, 30 min to Day 2
Description: Primary human brain microvascular endothelial cells (HBMVEC) and astrocytes were obtained from Sciencell Research Laboratories, Carlsbad, Calif. An in-vitro BBB model was established in trans-well plate as per published protocol.^47,48 HBMVECs were inoculated at the upper side of 0.4-μm pore size PTFE membrane tissue culture inserts (Corning, N.Y.) at initial concentration of 10^4 cells/well. A confluent layer of human astrocytes was grown on the lower side of the membrane. After incubation, integrity of the BBB was measured with transendothelial electrical resistance (TEER) using Millicell ERS microelectrodes (Millipore). […] Afterwards, cell media was collected at different time points (30 mins, 1 hr, Day 1, and Day 2) from the lower chamber and the upper chamber was replenished with fresh media. The drug content of the collected medium was measured through HPLC as mentioned above.

HIV-1 Ba-L = assay: Anti-HIV-1 efficacy, p24 ELISA in infected primary human macrophages; format: cell-based; conditions: 40 μg/mL, HIV-1 infected macrophages, supernatant Day 0-7
Description: ND-EFV was investigated for anti-HIV-1 efficacy in primary human macrophage. Human peripheral blood mononuclear cells (PBMCs) were isolated from a healthy subject and differentiated into macrophages as previously published.^45 PBMCs were isolated with Ficoll-Hypaque (Pharmacia) gradient and cells were incubated for differentiation for 7 days in the presence of human macrophage colony stimulating factor (MCSF, Sigma) to macrophages. Following incubation, macrophages were infected with HIV-1 1Ba-L (NIH AIDS research and reference reagent program Cat#510) (100 ng/mL) for 24 hrs. On the next day, cells were washed to get rid of any unattached virus and fresh media was added. At the same time, 40 μg/mL of ND-EFV and unformulated EFV was added to these cells in two different setups. The HIV-1 infected macrophages served as a positive control. The […] treated cells were monitored for up to 10 days along with the infected control cells. The cell supernatant was collected at Day 0, 1, 2, 3, 5, and 7 post-treatment. The viral p24 level in the supernatant was measured with p24 ELISA assay (Cat. #0801200, Zeptometrix, USA). The p24 level at different time points provided the level of viral inhibition caused by ND-EFV and EFV. The p24 level at the culture supernatant will be inversely proportional to therapeutic efficacy of ND-EFV.

O=C1Nc2ccc(Cl)cc2[C@@](C#CC2CC2)(C(F)(F)F)O1 [EFV, Efavirenz]
solubility in water or phosphate buffer saline (PBS) [1]: insoluble | EFV drug release on the CNS side (lower chamber) of the BBB model [2]: very robust drug release | time over which HIV-1 replication (p24 level) was controlled (HIV-1 Ba-L): ≤ 5 days
